Reference: patent US20140288043A1, “PYRAZOLOPYRIDINE COMPOUNDS” (Genentech, Inc., priority 2013, published 2014)

Target: LRRK2 (Homo sapiens, UniProt Q5S007)
Assay: LRRK2 protein kinase assay ([γ-33P] ATP, peptide substrate), KI values of Table 1
Assay type: biochemical
Conditions: LRRK2 affinity values
Text: All LRRK2 protein kinases were of human origin and were sourced from Invitrogen Corporation (Carlsbad, Calif. 92008 USA) unless otherwise indicated. The active mutant used was recombinant human, catalytic domain (amino acids 970-2527) containing a G2019S mutation, GST-tagged, expressed in insect cells (Invitrogen Cat#PV4881). The wild type used was recombinant human, catalytic domain (amino acids 970-2527) GST-tagged, expressed in insect cells (Invitrogen Cat#PV4873). The kinase dead mutant used was recombinant human, catalytic domain (amino acids 970-2527) containing a D1994A mutation, GST-tagged, expressed in insect cells (Invitrogen Cat#PM4041AE). No special measures were taken to activate any of the kinases.
All assays were carried out at room temperature (˜21° C.) and were linear with respect to time and enzyme concentration under the conditions used. Assays were performed for 180 min in a 96 well format. LRRK2 was present at a concentration of approximately 5 nM. The enzyme was diluted and assayed in 50 mM Tris-HCl pH7.5, 0.1 mM EGTA, 1 mM DTT and 10 mM MgCl2. The concentration of magnesium chloride in the assay was 10 mM. The [γ-33P] ATP (0.4 μCi/well) was used at 134 uM for G2019S mutant and at 57 μM for the wild type kinase in order to be at Km. The peptide substrate in the assay was […] at 100 μM.
The assays were initiated with Mg/ATP and stopped by the addition of 25 μl/well 50% orthophosphoric acid. Reactions were harvested onto Whatman P81 Unifilter Plates (Fisher Scientific. Loughborough, LE115RG, UK. Cat# FDU-105-020U) using a Tomtec harvester. (Tomtec Hamden, Conn. 06514. USA) Plates were counted using a Perkin Elmer Top Count NX7. (Perkin Elmer, Shelton Conn. 06484-4794 USA)
IC50 values of inhibitors were determined after carrying out assays at 10 different concentrations of each compound in duplicate.

Chain of LRRK2 (Q5S007 whole entry G2019S, form open): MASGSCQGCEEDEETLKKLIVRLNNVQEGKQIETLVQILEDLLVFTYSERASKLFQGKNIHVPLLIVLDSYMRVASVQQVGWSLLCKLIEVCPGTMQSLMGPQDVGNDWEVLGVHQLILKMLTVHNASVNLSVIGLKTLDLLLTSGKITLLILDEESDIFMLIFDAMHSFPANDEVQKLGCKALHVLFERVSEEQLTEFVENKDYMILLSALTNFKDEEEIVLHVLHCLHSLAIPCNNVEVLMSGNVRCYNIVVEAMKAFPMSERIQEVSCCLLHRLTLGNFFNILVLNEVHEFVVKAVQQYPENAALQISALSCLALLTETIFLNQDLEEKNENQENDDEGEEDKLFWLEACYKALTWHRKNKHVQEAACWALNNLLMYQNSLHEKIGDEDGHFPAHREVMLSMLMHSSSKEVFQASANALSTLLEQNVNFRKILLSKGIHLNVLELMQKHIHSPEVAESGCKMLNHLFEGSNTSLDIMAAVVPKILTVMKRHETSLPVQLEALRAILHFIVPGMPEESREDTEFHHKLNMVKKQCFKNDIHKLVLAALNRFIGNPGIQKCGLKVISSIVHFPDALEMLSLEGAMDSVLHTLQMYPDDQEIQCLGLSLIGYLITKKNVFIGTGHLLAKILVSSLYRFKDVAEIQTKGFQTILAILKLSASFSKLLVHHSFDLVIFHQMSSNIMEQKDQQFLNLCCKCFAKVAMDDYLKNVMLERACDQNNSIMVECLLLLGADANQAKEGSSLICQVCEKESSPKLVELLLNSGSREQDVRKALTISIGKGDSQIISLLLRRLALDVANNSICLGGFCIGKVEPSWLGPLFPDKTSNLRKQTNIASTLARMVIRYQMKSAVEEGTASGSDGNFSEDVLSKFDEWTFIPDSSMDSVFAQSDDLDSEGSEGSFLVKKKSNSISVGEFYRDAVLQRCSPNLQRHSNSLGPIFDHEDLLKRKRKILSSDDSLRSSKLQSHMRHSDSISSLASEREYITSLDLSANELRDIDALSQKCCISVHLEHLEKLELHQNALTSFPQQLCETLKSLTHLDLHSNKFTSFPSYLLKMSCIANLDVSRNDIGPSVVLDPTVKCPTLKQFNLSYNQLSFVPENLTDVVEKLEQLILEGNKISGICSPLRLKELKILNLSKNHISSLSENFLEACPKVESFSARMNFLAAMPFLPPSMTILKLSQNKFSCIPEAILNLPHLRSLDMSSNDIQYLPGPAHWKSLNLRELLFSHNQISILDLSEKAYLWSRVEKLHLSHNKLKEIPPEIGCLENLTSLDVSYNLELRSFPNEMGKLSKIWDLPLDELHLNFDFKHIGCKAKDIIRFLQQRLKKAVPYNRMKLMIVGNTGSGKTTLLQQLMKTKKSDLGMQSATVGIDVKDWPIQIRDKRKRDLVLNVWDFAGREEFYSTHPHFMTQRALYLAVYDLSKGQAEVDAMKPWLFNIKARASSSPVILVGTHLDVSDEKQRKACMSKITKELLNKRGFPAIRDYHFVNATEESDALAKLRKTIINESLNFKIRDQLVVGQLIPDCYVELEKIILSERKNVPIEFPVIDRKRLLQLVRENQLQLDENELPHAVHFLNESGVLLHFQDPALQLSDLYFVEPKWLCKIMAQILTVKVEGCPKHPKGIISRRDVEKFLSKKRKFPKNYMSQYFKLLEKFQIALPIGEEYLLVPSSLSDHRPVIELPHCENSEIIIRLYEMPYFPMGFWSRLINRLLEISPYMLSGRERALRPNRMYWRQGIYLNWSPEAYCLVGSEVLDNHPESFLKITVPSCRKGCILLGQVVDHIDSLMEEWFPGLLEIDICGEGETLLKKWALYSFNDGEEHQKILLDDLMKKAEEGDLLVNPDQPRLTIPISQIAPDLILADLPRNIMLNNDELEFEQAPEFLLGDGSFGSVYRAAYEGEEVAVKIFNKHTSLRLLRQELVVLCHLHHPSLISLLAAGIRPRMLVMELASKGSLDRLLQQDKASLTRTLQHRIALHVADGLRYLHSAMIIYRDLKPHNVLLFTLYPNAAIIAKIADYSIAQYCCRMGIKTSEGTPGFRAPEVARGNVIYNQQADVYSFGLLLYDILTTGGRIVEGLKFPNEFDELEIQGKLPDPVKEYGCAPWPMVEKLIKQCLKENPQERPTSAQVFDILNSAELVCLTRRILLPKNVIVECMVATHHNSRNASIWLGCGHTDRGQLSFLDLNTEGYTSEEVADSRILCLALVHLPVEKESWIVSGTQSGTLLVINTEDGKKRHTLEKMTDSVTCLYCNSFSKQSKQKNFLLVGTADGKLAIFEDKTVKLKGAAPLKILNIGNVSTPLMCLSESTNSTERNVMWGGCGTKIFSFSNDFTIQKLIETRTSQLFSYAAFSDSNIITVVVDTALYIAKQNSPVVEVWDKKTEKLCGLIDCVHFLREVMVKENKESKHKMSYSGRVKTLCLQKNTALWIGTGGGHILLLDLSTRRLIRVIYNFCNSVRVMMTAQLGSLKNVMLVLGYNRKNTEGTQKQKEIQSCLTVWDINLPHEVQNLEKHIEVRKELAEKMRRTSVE

Row | SMILES | Ki
1 | CC(C)Nc1nccc2[nH]nc(-c3cc(C(=O)N4CCOCC4)ccn3)c12 [Compound 56, (2-(4-(isopropylamino)-1H-pyrazolo[4,3-c]pyridin-3-yl)pyridin-4-yl)(morpholino)methanone] | 0.0803 µM
2 | Cc1cc2[nH]nc(-c3cc(C(F)(F)F)ncn3)c2c(NC2CCOCC2)n1 [Compound 57, 6-methyl-N-(tetrahydro-2H-pyran-4-yl)-3-(6-(trifluoromethyl)pyrimidin-4-yl)-1H-pyrazolo[4,3-c]pyridin-4-amine] | 0.0663 µM
3 | CCOc1cc(-c2n[nH]c3cc(C)nc(NC4CCOCC4)c23)ncn1 [Compound 58, 3-(6-ethoxypyrimidin-4-yl)-6-methyl-N-(tetrahydro-2H-pyran-4-yl)-1H-pyrazolo[4,3-c]pyridin-4-amine] | 0.0391 µM
4 | CC(C)Nc1nccc2[nH]nc(-c3cc(N4C[C@@H](F)[C@H](F)C4)ccn3)c12 [Compound 59, 3-(4-((3R,4R)-3,4-difluoropyrrolidin-1-yl)pyridin-2-yl)-N-isopropyl-1H-pyrazolo[4,3-c]pyridin-4-amine] | 0.0039 µM
5 | Cc1cc2[nH]nc(-c3cc(C(=O)N(C)C)ccn3)c2c(NC2CCOCC2)n1 [Compound 60, N,N-dimethyl-2-(6-methyl-4-((tetrahydro-2H-pyran-4-yl)amino)-1H-pyrazolo[4,3-c]pyridin-3-yl)isonicotinamide] | 0.644 µM
6 | FC1(F)CN(c2ccnc(-c3n[nH]c4ccnc(NC5CCOCC5)c34)c2)CC(F)(F)O1 [Compound 61, 3-(4-(2,2,6,6-tetrafluoro-morpholino)pyridin-2-yl)-N-(tetrahydro-2H-pyran-4-yl)-1H-pyrazolo[4,3-c]pyridin-4-amine] | 0.0014 µM
7 | CC(C)Nc1nccc2[nH]nc(-c3cc(C(=O)N(C)C)ncn3)c12 [Compound 62, 6-(4-(isopropylamino)-1H-pyrazolo[4,3-c]pyridin-3-yl)-N,N-dimethylpyrimidine-4-carboxamide] | 0.193 µM
8 | O=C(c1ccnc(-c2n[nH]c3ccnc(NC4CCOCC4)c23)c1)N1CCC1 [Compound 63, azetidin-1-yl(2-(4-((tetrahydro-2H-pyran-4-yl)amino)-1H-pyrazolo[4,3-c]pyridin-3-yl)pyridin-4-yl)methanone] | 0.0147 µM
9 | Cc1cc(C(=O)N(C)C)cc(-c2n[nH]c3ccnc(NC4CCOCC4)c23)n1 [Compound 64, N,N,2-trimethyl-6-(4-((tetrahydro-2H-pyran-4-yl)amino)-1H-pyrazolo[4,3-c]pyridin-3-yl)isonicotinamide] | 0.0166 µM
10 | FC(F)(F)c1cc(-c2n[nH]c3ccnc(NCC4CC4)c23)ncn1 [Compound 65, N-(cyclopropylmethyl)-3-(6-(trifluoromethyl)pyrimidin-4-yl)-1H-pyrazolo[4,3-c]pyridin-4-amine] | 0.0202 µM
11 | FC1(F)CCC(Nc2nccc3[nH]nc(-c4cc(C(F)(F)F)ncn4)c23)CC1 [Compound 66, N-(4,4-difluorocyclohexyl)-3-(6-(trifluoro-methyl)pyrimidin-4-yl)-1H-pyrazolo[4,3-c]pyridin-4-amine] | 0.0229 µM
12 | Cc1nc(-c2n[nH]c3ccnc(NC4CCC(F)(F)CC4)c23)cc(C(F)(F)F)n1 [Compound 67, N-(4,4-difluorocyclohexyl)-3-(2-methyl-6-(trifluoromethyl)pyrimidin-4-yl)-1H-pyrazolo[4,3-c]pyridin-4-amine] | 0.0203 µM
13 | CC1CC(Nc2nccc3[nH]nc(-c4cc(C(F)(F)F)ncn4)c23)CC(C)O1 (stereo not shown) [Compound 68, N-(2,6-dimethyltetrahydro-2H-pyran-4-yl)-3-(6-(trifluoromethyl)pyrimidin-4-yl)-1H-pyrazolo[4,3-c]pyridin-4-amine] | 0.0233 µM
14 | CS(=O)(=O)c1ccnc(-c2n[nH]c3ccnc(NC4CCOCC4)c23)c1 [Compound 69, 3-(4-(methylsulfonyl)pyridin-2-yl)-N-(tetrahydro-2H-pyran-4-yl)-1H-pyrazolo[4,3-c]pyridin-4-amine] | 0.0068 µM
15 | Cc1cc(C(F)(F)F)cc(-c2n[nH]c3ccnc(NC4CCOCC4)c23)n1 [Compound 70, 3-(6-methyl-4-(trifluoromethyl)pyridin-2-yl)-N-(tetrahydro-2H-pyran-4-yl)-1H-pyrazolo[4,3-c]pyridin-4-amine] | 0.0007 µM
16 | Cc1nc(-c2n[nH]c3ccnc(NC4CCOCC4)c23)cc(C(F)(F)F)n1 [Compound 71, 3-(2-methyl-6-(trifluoromethyl)pyrimidin-4-yl)-N-(tetrahydro-2H-pyran-4-yl)-1H-pyrazolo[4,3-c]pyridin-4-amine] | 0.0067 µM
17 | CC(C)Nc1nccc2[nH]nc(-c3cc(S(C)(=O)=O)ccn3)c12 [Compound 72, N-isopropyl-3-(4-(methylsulfonyl)pyridin-2-yl)-1H-pyrazolo[4,3-c]pyridin-4-amine] | 0.006 µM
18 | FC(F)(F)c1cc(-c2n[nH]c3ccnc(NC(C4CC4)C4CC4)c23)ncn1 [Compound 73, N-(dicyclopropylmethyl)-3-(6-(trifluoro-methyl)pyrimidin-4-yl)-1H-pyrazolo[4,3-c]pyridin-4-amine] | 0.0025 µM
19 | CC(C)Nc1nccc2[nH]nc(-c3cc(S(=O)(=O)C(C)C)ccn3)c12 [Compound 74, N-isopropyl-3-(4-(isopropylsulfonyl)pyridin-2-yl)-1H-pyrazolo[4,3-c]pyridin-4-amine] | 0.0258 µM
20 | CC(C)S(=O)(=O)c1ccnc(-c2n[nH]c3ccnc(NC4CCOCC4)c23)c1 [Compound 75, 3-(4-(isopropylsulfonyl)pyridin-2-yl)-N-(tetrahydro-2H-pyran-4-yl)-1H-pyrazolo[4,3-c]pyridin-4-amine] | 0.0232 µM
21 | Cc1cc(S(C)(=O)=O)cc(-c2n[nH]c3ccnc(NC(C)C)c23)n1 [Compound 76, N-isopropyl-3-(6-methyl-4-(methylsulfonyl)pyridin-2-yl)-1H-pyrazolo[4,3-c]pyridin-4-amine] | 0.0045 µM
22 | FC(F)(F)c1cc(-c2n[nH]c3ccnc(NC4CC5CCC(C4)O5)c23)ncn1 (stereo not shown) [Compound 77, N-(8-oxabicyclo[3.2.1]octan-3-yl)-3-(6-(trifluoromethyl)pyrimidin-4-yl)-1H-pyrazolo[4,3-c]pyridin-4-amine] | 0.0226 µM
